Source: patent US9765040B2, “Therapeutic agent for pain” (Astellas Pharma Inc., priority 2010, dated 2017)
Read-outs that look alike come from different tables or passages of the source.

Tests used:
rat recombinant 11β-HSD1 = rat recombinant 11β-HSD1 (Rattus norvegicus (Rat), UniProt P16232); assay: Measurement test for rat 11β-HSD1 inhibitory activity (HTRF cortisol detection); type: biochemical; conditions: rat recombinant 11β-HSD1, 200 nM cortisone, 40 μM NADPH, pH 6.6, room temperature 1 hour
Sequence of rat recombinant 11β-HSD1 (P16232 whole entry): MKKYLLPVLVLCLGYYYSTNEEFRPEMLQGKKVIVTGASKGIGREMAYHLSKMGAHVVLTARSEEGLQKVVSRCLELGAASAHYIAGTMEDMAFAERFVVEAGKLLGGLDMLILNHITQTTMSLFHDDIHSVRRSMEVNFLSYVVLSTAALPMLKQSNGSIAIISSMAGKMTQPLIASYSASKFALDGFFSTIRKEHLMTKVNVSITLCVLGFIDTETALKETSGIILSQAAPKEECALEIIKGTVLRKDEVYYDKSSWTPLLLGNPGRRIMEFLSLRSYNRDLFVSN
Procedure: The procedure for measuring the 11β-HSD1-inhibitory activity is as follows. The enzyme reaction and the measurement were carried out using a 384-well plate. The enzyme was prepared in accordance with Journal of Biological Chemistry, 2001, Vol. 276, p. 21343-21350. The reaction was carried out by adding a test compound at various concentrations to a reaction liquid consisting of a 5 mM phosphate buffer (pH 6.6), 200 nM cortisone, 40 μM reduced nicotinamide adenine dinucleotide phosphate (NADPH), and rat recombinant 11β-HSD1, followed by incubating at room temperature for one hour (10 μl/well). The test compound was prepared by dissolving in dimethyl sulfoxide (DMSO) such that a DMSO concentration reached 1% in the reaction liquid. After the enzyme reaction was completed, the enzyme inhibitory action was measured by detecting cortisol using a homogeneous time-resolved fluorescence (HTRF) method. Each of a d2-labeled cortisol containing 400 μM carbenoxolone and a cryptate-labeled cortisol antibody (CIS Bio International Co., Ltd.) was added at 5 μl/well, followed by incubating at room temperature for 2 hours, and then the fluorescence intensity was measured using a fluorophotometer (trade name: ARVO HTS 1420, Perkin Elmer/Wallac), and the enzyme inhibitory activity was calculated from the fluorescence intensity ratio of two wavelengths (665 nm/620 nm).
The measurement results were calculated by averaging the values of 3 wells of the same condition. The ratio when DMSO was added instead of the test compound was taken as 0% and the ratio when 11β-HSD1 was not added was taken as 100%, thereby calculating the 50% inhibition concentration of the test compound as IC50 of the compound inhibitory activity.

[1] = system: spinal nerve ligation model; assay: Test of spinal nerve ligation model (von Frey hair test); type: in vivo, rat; conditions: read-out: Improvement rate % (dose)
Procedure: The test was carried out in accordance with Pain, 1992, Vol. 50, p. 355-363. The lumbar skin and muscle of a rat (SD, male, 5- to 6-week old) were incised under pentobarbital anesthesia and the transverse processes of lumbar L6 were removed to expose lumbar nerves. The L5 and L6 spinal nerves were ligated with silk thread and then the wound was sutured. The treatment was performed on the left side. However, in a case of a pseudo-operation, the wound was sutured without carrying out the nerve ligation.
Drug efficacy evaluation was carried out by a von Frey hair test 7 to 20 days after the operation. The withdrawal response threshold was calculated in accordance with Journal of Neuroscience Methods, 1994, Vol. 53, p. 55-63. The plantar of hindlimb was stimulated using 8 kinds of von Frey filaments (0.41 to 15.14 g), and 50% withdrawal response thresholds were determined by an up-and-down method. The test was initiated from 2.04 g of the filament, and a case where the withdrawal response of the limb was observed was taken as presence of the response.
On the previous day of the drug efficacy evaluation, the animals showing reduction in the thresholds according to a von Frey hair test were preliminarily selected and grouped such that the difference in the average values of the thresholds between the respective groups was reduced.
The test substance was suspended in a 0.5% methylcellulose solution and administered orally 2 hours before the drug efficacy evaluation. The evaluation of the test substance was carried out by determining the improvement rate of the group administered with the test substance when the threshold of the limb on the treatment side in the pseudo-operation animal group was taken as 100% and the threshold of the limb on the treatment side in an operated animal group administered with a solvent was taken as 0%.

[2] = system: fibromyalgia model induced by repeated administration of reserpine; assay: Test of fibromyalgia model induced by repeated administration of reserpine (muscle pressure pain threshold); type: in vivo; conditions: 1 mg/kg oral, maximum among 30, 60 and 120 min after administration, normal rat = 100%, reserpine + solvent = 0%, SD rat
Procedure: The test was carried out in accordance with Pain, 2009, Vol. 146, p. 26-33. Rats (SD, male, 7 weeks old) were used.
The threshold measurement for the muscle pressure pain was carried out according to the method of Schafers et al. (Pain, 2003, Vol. 104, p. 579-588). The pressure stimulus gradually increasing up to 250 g was applied to the gastrocnemius muscle of the right hindlimb of the rat. […] The measurements were carried out in triplicate for each point of time and the average thereof was taken as a measured value.
A solvent (0.5% acetic acid/water) or reserpine at 1 mg/kg was subcutaneously administered on a dorsal subcutaneous part for 3 days once per day. The administration volume of the solvent or reserpine was taken as 1 mL per kg of a body weight of an animal. The muscle pressure pain thresholds of the respective rats were measured at 6 days after the initiation of the administration of the solvent or reserpine, and grouped such that the difference in the average values of the thresholds between the respective groups was reduced.
The drug efficacy evaluation was carried out the next day. The test substance was suspended in a 0.5% methylcellulose solution and the muscle pressure pain thresholds were measured 30, 60, and 120 minutes after oral administration. For the normal rats, drug administration was not carried out, and only the measurement of the muscle pressure pain thresholds was carried out. […] The evaluation of the test substance was carried out by determining the maximal improvement rate of the group administered with the test substance among at time points of 30, 60, and 120 minutes after the administration when the muscle pressure pain threshold of the normal rat is taken as 100% and the muscle pressure pain threshold of the rat treated with reserpine while administered with the solvent is taken as 0%.

[3] = 0.3 mg/kg oral, 2 hours before evaluation, 50% withdrawal response threshold, pseudo-operation group = 100%, operated solvent group = 0%, SD rat

IC50 (rat recombinant 11β-HSD1) [nM] | SMILES | inhibition in vivo at 0.3 mg/kg [1, 3] [%] | Maximum improvement rate % (dose) [2] | inhibition in vivo at 0.3 mg/kg ([1]; Rattus norvegicus, po, 2 h) [%]
35 | Cn1c(-c2ccc(F)cc2Br)nnc1C(C)(C)Oc1c(F)cc(F)cc1F [Compound 1] | 71 |  | 
 | Cn1c(-c2ccc(F)cc2Cl)nnc1C(C)(C)Oc1c(F)cc(F)cc1F [Compound 2] |  | 30 (1 mg/kg) % | 88
24 | Cn1c(-c2ccccc2Cl)nnc1C(C)(C)Oc1c(F)cc(F)cc1F [Compound 3] | 62 |  | 
32 | Cl.Cn1c(-c2ccccc2Cl)nnc1C(C)(C)Oc1c(F)cc(Cl)cc1F [Compound 4] | 85 | 82 (1 mg/kg) % | 
263 | Cn1c(-c2ccc(F)cc2Cl)nnc1C(C)(C)Oc1c(F)cc(Cl)cc1F [Compound 5] | 65 |  | 
322 | Cn1c(-c2ccccc2F)nnc1C(C)(C)Oc1c(F)cc(F)cc1F [Compound 6] | 52 |  | 
32 | Cn1c(-c2c[nH]nc2C(F)(F)F)nnc1C(C)(C)Oc1c(F)cc(F)cc1F [Compound 7] | 73 |  | 
 | CCn1c(-c2ccc(C(N)=O)cc2)nnc1C(C)(C)Oc1c(F)cc(Cl)cc1F [Compound 8] |  | 41 (1 mg/kg) % | 87
26 | CC(C)n1c(-c2ccc(C(N)=O)cc2)nnc1C(C)(C)Oc1c(F)cc(F)cc1F [Compound 9] | 78 |  | 
 | Cn1c(-c2ccc(C(N)=O)cc2F)nnc1C(C)(C)Oc1c(F)cc(Cl)cc1F [Compound 10] | 81 | 65 (1 mg/kg) % | 
64 | CC(C)(Oc1ccc(F)cc1F)c1nnc(-c2ccc(C(N)=O)cc2F)n1C1CC1 [Compound 11] | 82 | 83 (1 mg/kg) % | 
182 | Cn1c(-c2ccc(C(N)=O)cc2F)nnc1C(C)(C)Oc1c(F)cc(F)cc1F [Compound 12] | 54 |  | 
68 | CC(C)n1c(-c2ccc(C(N)=O)cc2)nnc1C(C)(C)Oc1c(F)cc(Cl)cc1F [Compound 13] | 53 |  | 
16 | CC(C)(Oc1ccc(F)cc1F)c1nnc(-c2ccc(C(N)=O)cc2Cl)n1C1CC1 [Compound 14] | 73 |  | 
 | CC(C)n1c(-c2ccc(C(N)=O)cc2F)nnc1C(C)(C)Oc1c(F)cc(F)cc1F [Compound 15] |  | 45 (1 mg/kg) % | 86
